{"source": "patent EP1054888B1", "about": "(priority 1998, dated 1999)", "assay_in_all_cases": "microbe, parasite or virus in culture", "assay_type_in_all_cases": "cell-based", "key": {"[1]": {"tested_on": "Mycosphaerella ligulicola", "details": "Stagonosporopsis ligulicola, read-out: MIC (Minimum Inhibitory Concentration) MYCOLG"}, "[2]": {"tested_on": "Monilina fructigena", "details": "read-out: MIC (Minimum Inhibitory Concentration) MONIFG"}, "[3]": {"tested_on": "Botrytis cinerea", "details": "read-out: MIC (Minimum Inhibitory Concentration) BOTRCI"}, "[4]": {"tested_on": "Leptosphaeria nodorum", "details": "Parastagonospora nodorum, read-out: MIC (Minimum Inhibitory Concentration) LEPTNO"}, "[5]": {"tested_on": "Sclerotinia sclerotiorum", "details": "read-out: MIC (Minimum Inhibitory Concentration) SCLESC"}, "[6]": {"tested_on": "Pyrenophora teres", "details": "read-out: MIC (Minimum Inhibitory Concentration) PYRNTE"}, "[7]": {"tested_on": "Magnaporthe grisea f. sp. oryzae", "details": "Pyricularia oryzae, read-out: MIC (Minimum Inhibitory Concentration) PYRIOR, Table II; total inhibition of mycelial growth, V8 juice nutrient solution, 6-12 days at 18-25°C, visual inspection"}, "[8]": {"tested_on": "Alternaria solani", "details": "read-out: MIC (Minimum Inhibitory Concentration) ALTESO"}, "[9]": {"tested_on": "Phytophthora infestans", "details": "read-out: MIC (Minimum Inhibitory Concentration) PHYTIN"}, "[10]": {"tested_on": "Rhizoctonia solani", "details": "read-out: MIC (Minimum Inhibitory Concentration) RHIZSO"}}}
{"molecule": "Fc1cccc(Cl)c1-c1c(Cl)nc2ncnn2c1C1CCCO1", "note": "(stereo not drawn) [Example 11]", "values": [{"measurement": "MIC", "setting": "[1]", "result": 12.5, "unit": "µg/mL"}, {"measurement": "MIC", "setting": "[2]", "result": 3.13, "unit": "µg/mL"}, {"measurement": "MIC", "setting": "[3]", "result": 1.56, "unit": "µg/mL"}, {"measurement": "MIC", "setting": "[4]", "result": 1.56, "unit": "µg/mL"}, {"measurement": "MIC", "setting": "[5]", "result": 25, "unit": "µg/mL"}]}
{"molecule": "FC(F)(F)Oc1ccccc1-c1c(Cl)nc2ncnn2c1C1CCCO1", "note": "(stereo not drawn) [Example 16]", "values": [{"measurement": "MIC", "setting": "[1]", "result": "> 100", "unit": "µg/mL"}, {"measurement": "MIC", "setting": "[2]", "result": "> 100", "unit": "µg/mL"}, {"measurement": "MIC", "setting": "[3]", "result": 25, "unit": "µg/mL"}, {"measurement": "MIC", "setting": "[4]", "result": "> 100", "unit": "µg/mL"}, {"measurement": "MIC", "setting": "[5]", "result": "> 100", "unit": "µg/mL"}]}
{"molecule": "CCCCc1c(-c2c(F)cccc2Cl)c(Cl)nc2ncnn12", "note": "[Example 17]", "values": [{"measurement": "MIC", "setting": "[1]", "result": 0.78, "unit": "µg/mL"}, {"measurement": "MIC", "setting": "[2]", "result": 3.13, "unit": "µg/mL"}, {"measurement": "MIC", "setting": "[3]", "result": 0.2, "unit": "µg/mL"}, {"measurement": "MIC", "setting": "[4]", "result": 0.78, "unit": "µg/mL"}, {"measurement": "MIC", "setting": "[5]", "result": 0.78, "unit": "µg/mL"}]}
{"molecule": "CCCCCc1c(-c2c(F)cccc2Cl)c(Cl)nc2ncnn12", "note": "[Example 18]", "values": [{"measurement": "MIC", "setting": "[1]", "result": 0.78, "unit": "µg/mL"}, {"measurement": "MIC", "setting": "[2]", "result": 3.13, "unit": "µg/mL"}, {"measurement": "MIC", "setting": "[3]", "result": 0.2, "unit": "µg/mL"}, {"measurement": "MIC", "setting": "[4]", "result": 1.56, "unit": "µg/mL"}, {"measurement": "MIC", "setting": "[5]", "result": 0.78, "unit": "µg/mL"}]}
{"molecule": "Fc1cc(F)c(-c2c(Cl)nc3ncnn3c2C2CCCCC2)c(F)c1", "note": "[Example 44]", "values": [{"measurement": "MIC", "setting": "[6]", "result": 0.2, "unit": "µg/mL"}, {"measurement": "MIC", "setting": "[7]", "result": "< 0.05", "unit": "µg/mL"}, {"measurement": "MIC", "setting": "[3]", "result": "< 0.05", "unit": "µg/mL"}, {"measurement": "MIC", "setting": "[8]", "result": "< 0.05", "unit": "µg/mL"}, {"measurement": "MIC", "setting": "[9]", "result": "> 100", "unit": "µg/mL"}, {"measurement": "MIC", "setting": "[4]", "result": 0.2, "unit": "µg/mL"}, {"measurement": "MIC", "setting": "[10]", "result": 0.78, "unit": "µg/mL"}]}
{"molecule": "[N-]=[N+]=Nc1nc2ncnn2c(C2CCCCC2)c1-c1c(F)cccc1Cl", "note": "[Example 45]", "values": [{"measurement": "MIC", "setting": "[6]", "result": "> 100", "unit": "µg/mL"}, {"measurement": "MIC", "setting": "[7]", "result": 12.5, "unit": "µg/mL"}, {"measurement": "MIC", "setting": "[3]", "result": "> 100", "unit": "µg/mL"}, {"measurement": "MIC", "setting": "[8]", "result": 100, "unit": "µg/mL"}, {"measurement": "MIC", "setting": "[9]", "result": "> 100", "unit": "µg/mL"}, {"measurement": "MIC", "setting": "[4]", "result": "> 100", "unit": "µg/mL"}, {"measurement": "MIC", "setting": "[10]", "result": "> 100", "unit": "µg/mL"}]}
{"molecule": "COc1nc2ncnn2c(C2CCCCC2)c1-c1ccccc1F", "note": "[Example 50]", "values": [{"measurement": "MIC", "setting": "[6]", "result": "> 100", "unit": "µg/mL"}, {"measurement": "MIC", "setting": "[7]", "result": 25, "unit": "µg/mL"}, {"measurement": "MIC", "setting": "[3]", "result": "> 100", "unit": "µg/mL"}, {"measurement": "MIC", "setting": "[8]", "result": "> 100", "unit": "µg/mL"}, {"measurement": "MIC", "setting": "[9]", "result": "> 100", "unit": "µg/mL"}, {"measurement": "MIC", "setting": "[4]", "result": "> 100", "unit": "µg/mL"}, {"measurement": "MIC", "setting": "[10]", "result": "> 100", "unit": "µg/mL"}]}
{"molecule": "Fc1c(F)c(F)c(-c2c(Cl)nc3ncnn3c2C2CCCCC2)c(F)c1F", "note": "[Example 101, 5-chloro-7-cyclohexyl-6-(pentafluorophenyl)-1,2,4-triazolo[1,5a]pyrimidine]", "values": [{"measurement": "MIC", "setting": "[6]", "result": 3.13, "unit": "µg/mL"}, {"measurement": "MIC", "setting": "[7]", "result": 0.2, "unit": "µg/mL"}, {"measurement": "MIC", "setting": "[3]", "result": 0.78, "unit": "µg/mL"}, {"measurement": "MIC", "setting": "[8]", "result": 0.2, "unit": "µg/mL"}, {"measurement": "MIC", "setting": "[9]", "result": "> 100", "unit": "µg/mL"}, {"measurement": "MIC", "setting": "[4]", "result": 0.2, "unit": "µg/mL"}, {"measurement": "MIC", "setting": "[10]", "result": "> 100", "unit": "µg/mL"}]}
